ChEMBL document CHEMBL4725259 (Bioorg Med Chem, 2020)
Activity calls are given as the source filed them. No cut-off for these calls is given here.

Columns and labels:
[1] = biological target: D(2) dopamine receptor (Homo sapiens) (UniProt P14416); assay: Agonist activity at human DRD2L expressed in CHO-K1 cells at 20 uM by PathHunter beta-arrestin assay relative to control; assay type: cell-based
[2] = biological target: T1, C-C chemokine receptor type 8 (Homo sapiens, UniProt P51685); assay: Agonist activity at human CCR8 expressed in CHO-K1 cells at 20 uM by PathHunter beta-arrestin assay relative to control; assay type: cell-based
T1 sequence (P51685 whole entry): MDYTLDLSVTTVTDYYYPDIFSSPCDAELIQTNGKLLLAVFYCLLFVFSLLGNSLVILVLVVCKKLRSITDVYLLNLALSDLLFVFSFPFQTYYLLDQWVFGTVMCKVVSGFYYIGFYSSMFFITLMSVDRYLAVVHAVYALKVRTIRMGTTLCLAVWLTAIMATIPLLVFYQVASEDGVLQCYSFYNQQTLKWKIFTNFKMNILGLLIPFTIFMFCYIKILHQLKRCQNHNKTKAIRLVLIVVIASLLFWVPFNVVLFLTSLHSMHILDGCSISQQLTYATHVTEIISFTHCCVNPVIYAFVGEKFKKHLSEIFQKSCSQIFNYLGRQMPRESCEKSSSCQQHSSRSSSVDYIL

[3] = biological target: T2, Oxytocin receptor (Homo sapiens) (UniProt P30559); assay: Antagonist activity at human OXTR expressed in CHO-K1 cells at 20 uM by PathHunter beta-arrestin assay relative to control; assay type: cell-based
T2 sequence (whole entry): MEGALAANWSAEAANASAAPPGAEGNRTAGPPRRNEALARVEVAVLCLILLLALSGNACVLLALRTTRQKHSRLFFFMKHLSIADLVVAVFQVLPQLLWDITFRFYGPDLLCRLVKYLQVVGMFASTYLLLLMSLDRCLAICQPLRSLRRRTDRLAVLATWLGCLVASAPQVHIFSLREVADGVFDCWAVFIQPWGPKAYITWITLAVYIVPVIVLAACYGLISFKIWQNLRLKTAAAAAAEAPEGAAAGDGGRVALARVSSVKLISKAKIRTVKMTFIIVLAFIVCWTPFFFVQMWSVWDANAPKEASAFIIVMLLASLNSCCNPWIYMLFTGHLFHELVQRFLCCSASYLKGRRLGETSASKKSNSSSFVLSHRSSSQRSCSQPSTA

[4] = biological target: T3, Follicle-stimulating hormone receptor (Homo sapiens) (UniProt P23945); assay: Agonist activity at human FSHR expressed in CHO-K1 cells at 20 uM by PathHunter beta-arrestin assay relative to control; assay type: cell-based
T3 sequence (whole entry): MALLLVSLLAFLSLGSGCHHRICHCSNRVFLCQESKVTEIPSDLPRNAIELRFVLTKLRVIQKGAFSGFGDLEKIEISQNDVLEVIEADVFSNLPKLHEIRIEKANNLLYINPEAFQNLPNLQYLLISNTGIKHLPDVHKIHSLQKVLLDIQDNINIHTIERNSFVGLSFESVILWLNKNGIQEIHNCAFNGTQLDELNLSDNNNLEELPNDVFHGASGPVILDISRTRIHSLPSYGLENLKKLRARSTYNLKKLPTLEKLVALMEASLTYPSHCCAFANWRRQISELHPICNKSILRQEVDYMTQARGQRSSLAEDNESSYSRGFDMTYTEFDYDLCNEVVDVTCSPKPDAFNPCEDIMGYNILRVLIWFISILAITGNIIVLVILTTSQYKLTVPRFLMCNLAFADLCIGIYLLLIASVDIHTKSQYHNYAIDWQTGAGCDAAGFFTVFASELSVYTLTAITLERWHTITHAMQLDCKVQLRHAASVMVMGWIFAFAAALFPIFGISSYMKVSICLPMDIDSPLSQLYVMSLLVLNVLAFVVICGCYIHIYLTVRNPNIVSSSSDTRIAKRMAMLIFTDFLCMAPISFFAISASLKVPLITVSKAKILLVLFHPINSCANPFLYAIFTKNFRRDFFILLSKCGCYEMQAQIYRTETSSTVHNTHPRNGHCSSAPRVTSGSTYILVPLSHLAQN

[5] = biological target: T4, Prolactin-releasing peptide receptor (Homo sapiens) (UniProt P49683); assay: Agonist activity at human PRLHR expressed in CHO-K1 cells at 20 uM by PathHunter beta-arrestin assay relative to control; assay type: cell-based
T4 sequence (whole entry): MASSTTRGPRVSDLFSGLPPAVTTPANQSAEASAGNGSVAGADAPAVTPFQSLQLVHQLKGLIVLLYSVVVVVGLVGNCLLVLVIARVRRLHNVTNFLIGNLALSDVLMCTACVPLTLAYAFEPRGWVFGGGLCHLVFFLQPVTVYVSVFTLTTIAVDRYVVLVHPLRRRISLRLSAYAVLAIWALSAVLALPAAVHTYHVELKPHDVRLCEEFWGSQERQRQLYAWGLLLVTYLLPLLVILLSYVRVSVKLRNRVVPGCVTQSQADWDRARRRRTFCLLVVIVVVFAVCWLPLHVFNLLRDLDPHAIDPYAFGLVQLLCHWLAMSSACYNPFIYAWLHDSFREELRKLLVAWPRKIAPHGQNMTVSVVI

U2OS [6] = assay: Agonist activity at NPSR1B in human U2OS cells at 20 uM by PathHunter beta-arrestin assay relative to control; assay type: cell-based
[7] = biological target: T5, C-X-C chemokine receptor type 4 (Homo sapiens, UniProt P61073); assay: Agonist activity at human CXCR4 expressed in mouse C2C12 cells at 20 uM by PathHunter beta-arrestin assay relative to control; assay type: cell-based
T5 sequence (P61073 whole entry): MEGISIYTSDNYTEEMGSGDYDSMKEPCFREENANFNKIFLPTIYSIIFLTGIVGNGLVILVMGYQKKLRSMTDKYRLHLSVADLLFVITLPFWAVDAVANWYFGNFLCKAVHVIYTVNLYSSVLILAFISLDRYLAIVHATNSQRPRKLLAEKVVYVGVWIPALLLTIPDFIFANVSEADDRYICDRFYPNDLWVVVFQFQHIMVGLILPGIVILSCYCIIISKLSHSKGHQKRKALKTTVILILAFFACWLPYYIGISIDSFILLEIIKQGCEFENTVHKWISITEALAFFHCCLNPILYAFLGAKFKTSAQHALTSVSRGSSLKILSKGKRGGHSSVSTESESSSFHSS

[8] = biological target: T3, Follicle-stimulating hormone receptor (Homo sapiens); assay: Antagonist activity at human FSHR expressed in CHO-K1 cells at 20 uM by PathHunter beta-arrestin assay relative to control; assay type: cell-based; conditions: filed as antagonist
[9] = biological target: T6, CX3C chemokine receptor 1 (Homo sapiens) (UniProt P49238); assay: Agonist activity at human CX3CR1 expressed in CHO-K1 cells at 20 uM by PathHunter beta-arrestin assay relative to control; assay type: cell-based
T6 sequence (whole entry): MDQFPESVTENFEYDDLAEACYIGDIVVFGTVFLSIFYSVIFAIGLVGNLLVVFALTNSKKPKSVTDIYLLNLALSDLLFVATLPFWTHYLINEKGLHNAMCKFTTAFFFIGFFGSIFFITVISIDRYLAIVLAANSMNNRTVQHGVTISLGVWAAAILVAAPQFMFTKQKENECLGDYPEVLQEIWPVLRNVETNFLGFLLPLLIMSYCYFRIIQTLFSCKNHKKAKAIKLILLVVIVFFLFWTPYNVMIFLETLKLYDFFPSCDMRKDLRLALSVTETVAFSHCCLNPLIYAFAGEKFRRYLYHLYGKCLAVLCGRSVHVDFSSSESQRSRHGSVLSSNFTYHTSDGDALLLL

[10] = biological target: D(2) dopamine receptor (Homo sapiens) (UniProt P14416); assay: Antagonist activity at human DRD2L expressed in CHO-K1 cells at 20 uM by PathHunter beta-arrestin assay relative to control; assay type: cell-based
[11] = biological target: T7, C-C chemokine receptor type 3 (Homo sapiens) (UniProt P51677); assay: Antagonist activity at human CCR3 expressed in CHO-K1 cells at 20 uM by PathHunter beta-arrestin assay relative to control; assay type: cell-based
T7 sequence (whole entry): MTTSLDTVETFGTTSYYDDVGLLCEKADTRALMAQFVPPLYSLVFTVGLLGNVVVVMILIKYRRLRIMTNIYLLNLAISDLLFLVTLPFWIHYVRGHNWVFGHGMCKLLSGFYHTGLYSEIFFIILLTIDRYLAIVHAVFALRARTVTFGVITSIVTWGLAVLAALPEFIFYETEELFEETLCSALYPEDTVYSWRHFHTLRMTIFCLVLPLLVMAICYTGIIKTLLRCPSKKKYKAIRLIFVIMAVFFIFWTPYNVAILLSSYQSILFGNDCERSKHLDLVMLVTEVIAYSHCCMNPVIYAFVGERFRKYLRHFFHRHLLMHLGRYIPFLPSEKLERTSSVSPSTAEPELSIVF

[12] = biological target: T6, CX3C chemokine receptor 1 (Homo sapiens); assay: Antagonist activity at human CX3CR1 expressed in CHO-K1 cells at 20 uM by PathHunter beta-arrestin assay relative to control; assay type: cell-based; conditions: filed as antagonist
Vasopressin V2 receptor [13] = biological target: T8, Vasopressin V2 receptor (Homo sapiens, UniProt P30518); assay: Antagonist activity at human AVPR2 at 20 uM by PathHunter beta-arrestin assay relative to control
T8 sequence (P30518 whole entry): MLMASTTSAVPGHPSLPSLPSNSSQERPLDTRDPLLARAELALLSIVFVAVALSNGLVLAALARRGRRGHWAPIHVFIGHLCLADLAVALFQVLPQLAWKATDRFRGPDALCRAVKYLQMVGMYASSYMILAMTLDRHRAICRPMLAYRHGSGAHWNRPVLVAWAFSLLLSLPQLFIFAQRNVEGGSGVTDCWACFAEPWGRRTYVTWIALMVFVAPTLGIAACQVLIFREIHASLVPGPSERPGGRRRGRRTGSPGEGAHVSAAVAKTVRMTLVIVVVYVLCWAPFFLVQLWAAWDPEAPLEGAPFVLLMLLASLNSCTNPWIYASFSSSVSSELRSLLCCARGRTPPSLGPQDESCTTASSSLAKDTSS

[14] = biological target: T2, Oxytocin receptor (Homo sapiens); assay: Agonist activity at human OXTR expressed in CHO-K1 cells at 20 uM by PathHunter beta-arrestin assay relative to control; assay type: cell-based
[15] = biological target: T1, C-C chemokine receptor type 8; assay: Antagonist activity at human CCR8 expressed in CHO-K1 cells at 20 uM by PathHunter beta-arrestin assay relative to control; assay type: cell-based; conditions: filed as antagonist
[16] = biological target: T4, Prolactin-releasing peptide receptor (Homo sapiens); assay: Antagonist activity at human PRLHR expressed in CHO-K1 cells at 20 uM by PathHunter beta-arrestin assay relative to control; assay type: cell-based; conditions: filed as antagonist
Vasopressin V2 receptor [17] = biological target: T8, Vasopressin V2 receptor; assay: Agonist activity at human AVPR2 at 20 uM by PathHunter beta-arrestin assay relative to control
[18] = biological target: T7, C-C chemokine receptor type 3 (Homo sapiens); assay: Agonist activity at human CCR3 expressed in CHO-K1 cells at 20 uM by PathHunter beta-arrestin assay relative to control; assay type: cell-based
[19] = biological target: T5, C-X-C chemokine receptor type 4; assay: Antagonist activity at human CXCR4 expressed in mouse C2C12 cells at 20 uM by PathHunter beta-arrestin assay relative to control; assay type: cell-based; conditions: filed as antagonist
U2OS [20] = assay: Antagonist activity at NPSR1B in human U2OS cells at 20 uM by PathHunter beta-arrestin assay relative to control; assay type: cell-based
[21] = biological target: T9, Follicle-stimulating hormone receptor (Homo sapiens, UniProt P23945); assay: Antagonist activity at human FSHR expressed in CHO-K1 cells by PathHunter beta-arrestin assay; assay type: cell-based
T9 sequence (P23945 whole entry): T3 sequence (whole entry)

[22] = Antagonist activity at NPSR1B in human U2OS cells by PathHunter beta-arrestin assay; assay type: cell-based
[23] = biological target: T10, Prolactin-releasing peptide receptor (Homo sapiens, UniProt P49683); assay: Antagonist activity at human PRLHR expressed in CHO-K1 cells by PathHunter beta-arrestin assay; assay type: cell-based
T10 sequence (P49683 whole entry): T4 sequence (whole entry)

Oxytocin receptor = biological target: T11, Oxytocin receptor (Homo sapiens, UniProt P30559); assay: Antagonist activity at human OXTR expressed in CHO-K1 cells by PathHunter beta-arrestin assay; assay type: cell-based
T11 sequence (P30559 whole entry): T2 sequence (whole entry)

Sequence of D(2) dopamine receptor (Homo sapiens) (P14416 whole entry): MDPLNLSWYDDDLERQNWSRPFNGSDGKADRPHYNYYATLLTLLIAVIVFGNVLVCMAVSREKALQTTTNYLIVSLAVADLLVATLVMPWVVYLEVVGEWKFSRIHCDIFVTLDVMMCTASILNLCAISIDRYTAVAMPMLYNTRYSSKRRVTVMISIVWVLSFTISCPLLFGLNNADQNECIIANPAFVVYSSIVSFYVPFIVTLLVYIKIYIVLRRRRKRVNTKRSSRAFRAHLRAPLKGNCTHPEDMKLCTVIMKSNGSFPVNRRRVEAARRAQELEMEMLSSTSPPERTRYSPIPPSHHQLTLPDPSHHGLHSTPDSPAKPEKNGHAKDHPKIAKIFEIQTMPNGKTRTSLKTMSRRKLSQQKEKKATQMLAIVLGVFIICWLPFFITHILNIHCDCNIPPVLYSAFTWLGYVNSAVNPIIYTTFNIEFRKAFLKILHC

| Activity [1] | Activity [2] | Activity [4] | Activity [5] | Activity [7] | inhibition [8] | Activity [9] | inhibition [12] | Activity [14] | inhibition [15] | Activity (Vasopressin V2 receptor [17]) | Activity [18] | inhibition [3] | Compound | Activity (U2OS [6]) | inhibition (Vasopressin V2 receptor [13]; filed as antagonist) | inhibition [16] | further results |
| --- | --- | --- | --- | --- | --- | --- | --- | --- | --- | --- | --- | --- | --- | --- | --- | --- | --- |
| inactive | inactive | inactive | inactive | inactive | 5% | inactive | 20% | inactive | 15% | inactive | inactive | – | COC(=O)[C@@H]1[C@H]2C[C@@H]3OCc4ccccc4-n4c3c(c3ccccc34)CCN(C#N)C[C@@H]2CC[C@@H]1O | inactive | 16% | 5% | inhibition ([3]; filed as antagonist): 27%; inhibition ([10]; filed as antagonist): 3%; inhibition ([11]; filed as antagonist): 2% |
| inactive | inactive | inactive | inactive | inactive | 12% | inactive | 9% | inactive | 10% | inactive | inactive | 0% | COC(=O)[C@@H]1[C@H]2C[C@H]3OCc4ccccc4-n4c3c(c3ccccc34)CCN(C#N)C[C@@H]2CC[C@@H]1O | inactive | – | – | inhibition [19]: 10%; inhibition [10]: -2%; inhibition [11]: -2%; inhibition (Vasopressin V2 receptor [13]): -1%; inhibition (U2OS [20]; filed as antagonist): 1% |
| inactive | inactive | inactive | inactive | inactive | 4% | inactive | 22% | inactive | – | inactive | inactive | – | COC(=O)[C@@H]1[C@H]2C[C@H]3c4[nH]c5ccccc5c4CCN3C[C@@H]2CC[C@@H]1O | inactive | – | – | inhibition ([3]; filed as antagonist): 5%; inhibition (Vasopressin V2 receptor [13]): -1%; inhibition (U2OS [20]): -3% |
| inactive | inactive | inactive | inactive | inactive | 94% | inactive | 53% | inactive | 78% | inactive | inactive | -7% | COC(=O)[C@@H]1[C@H]2C[C@@H](OCc3ccc(Br)cc3)c3[nH]c4ccccc4c3CCN(C#N)C[C@@H]2CC[C@@H]1O | inactive | 1% | 82% | IC50 [21]: 8.03 µM; IC50 [22]: 10.3 µM; inhibition [19]: 29%; inhibition ([10]; filed as antagonist): 10%; inhibition ([11]; filed as antagonist): 50%; IC50 [23]: 4.89 µM; inhibition (U2OS [20]; filed as antagonist): 87% |
| – | – | – | – | – | – | – | – | – | – | – | – | – | Cc1ccccc1N1CCN(S(=O)(=O)CC23CCC(C[C@@H]2NC(=O)[C@@H](N)CCS(C)(=O)=O)C3(C)C)CC1 (some centres undefined) | – | – | – | IC50 (Oxytocin receptor): 0.00462 µM |

| Compound | Activity [1] | Activity [2] | Activity [4] | Activity [5] | Activity [7] | inhibition [8] | Activity [9] | inhibition [12] | Activity [14] | inhibition [15] | Activity (Vasopressin V2 receptor [17]) | Activity [18] | inhibition [3] | Activity (U2OS [6]) | inhibition (Vasopressin V2 receptor [13]; filed as antagonist) | inhibition [16] | further results |
| --- | --- | --- | --- | --- | --- | --- | --- | --- | --- | --- | --- | --- | --- | --- | --- | --- | --- |
| COC(=O)[C@@H]1[C@H]2C[C@@H]([C@@]3(CCn4cc(CCCCO)nn4)C(=O)Nc4ccccc43)N(C#N)C[C@@H]2CC[C@@H]1O | inactive | inactive | inactive | inactive | inactive | 2% | inactive | 11% | inactive | 5% | inactive | inactive | 0% | inactive | 1% | 9% | – |
| COC(=O)[C@@H]1[C@H]2C[C@@H]3N(CC[C@@]34C(=O)N(c3cncc(OC)n3)c3ccccc34)C[C@@H]2CC[C@@H]1O | inactive | inactive | inactive | inactive | inactive | 11% | inactive | 9% | inactive | 9% | inactive | inactive | – | inactive | 9% | 2% | inhibition [10]: -8%; inhibition [11]: -7% |
